Our source for the GI50 and TGI values is PubChem BioAssay (NCI).

“And” between values parts separate entries of the source, which are not always exact repeats. Equal values may be shown once.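 Dose response: 5 concentrations. Exposure: 48 h. Format: 96-well plates. Endpoint: linear interpolation; highest concentration if not reached. GI50: concentration for 50% inhibition of growth. TGI marks complete inhibition of growth.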 Where only a bound is given, the exact number is not on record here.

In the first assay the test system is CAKI-1 renal. Briefly: NCI anticancer screen, dose series, 48 h.
As to `COC(=O)c1cc2c3ccccc3[nH]c2c2ncccc12`, the GI50 was 8.12 µM and the TGI is > 100 µM.
Compound `CNC(=O)OCc1c(COC(=O)NC)c(-c2ccc(Cl)c(Cl)c2)n2c1SCC2` gave a TGI of 23.9 µM.
On to `COc1cc(OC)cc(-c2ccc(-c3ccc(C(=N)N)o3)o2)c1`, for which the GI50 is 4.33 µM and the TGI was found to be 16.1 µM.
For `C[C@]12CC[C@H](O)CC1=CC[C@@H]1[C@@H]2CC[C@]2(C)C(c3cccnc3)=CC[C@@H]12`, the GI50 is > 100 µM and the TGI was > 100 µM.
Turning to `Cc1ccc2c(c1)C(=O)/C(=C/c1ncc([N+](=O)[O-])n1C)O2`, the GI50 is 0.665 µM and the TGI amounted to 7.54 µM.
On the same counts, the results for `O=C(NCCOCCOCCNc1cccc2c1C(=O)N(C1CCCNC1=O)C2=O)c1cc2c(o1)C(=O)c1ccccc1C2=O` (centres undefined) are 2.75 µM and 9.3 µM.
In the case of `O=C(CN1CCOCC1)Nc1ccc(Cn2nnc3c2C(=O)c2nnn(Cc4ccc(NC(=O)CN5CCOCC5)cc4)c2C3=O)cc1`, the GI50 was > 45 µM and the TGI was > 100 µM.
For the compound `O=C(c1ccco1)c1nc2ccc(C(F)(F)F)cc2[n+]([O-])c1C(F)(F)F`, the GI50 is 31 µM and the TGI is > 100 µM.
In the case of `C=C(CN1CCc2ccccc2C1)c1ccc(C(=O)Nc2cnccn2)cc1`, the GI50 is 7.77 µM and the TGI was > 100 µM.
On the same counts, the results for `CCCCC/C(C=C(C#N)C#N)=C/c1ccccc1` are 1.3 µM and 21.3 µM.
Turning to `CC1CCC2(C(=O)O)CCC3(C)C(=CCC4C5(C)CC(O)C(O)C(C)(CO)C5C(O)CC43C)C2C1C` (centres undefined), the TGI was > 100 µM.
Consider `Cc1ccc(S(=O)(=O)N(CCOc2ccc(/C(N)=N/Cl)cc2)CCOc2ccc(/C(N)=N\Cl)cc2)cc1`, for which the GI50 is 76.6 µM and the TGI was > 100 µM.
Turning to `COc1ccc(C2=NN(C(=O)c3cc(OC)c(OC)c(OC)c3)C(c3ccc(C#N)cc3)C2)cc1OC` (centres undefined), the GI50 was 0.412 µM and the TGI was 7.15 µM.
Consider `CCOc1cccc(/C=N/NC(=O)c2ccccc2Nc2ccnc(C(F)(F)F)c2)c1O`, for which the GI50 is 0.222 µM and the TGI was found to be 10.5 µM.
For `CSc1cc(N=Nc2nc3ccccc3s2)c2ccccc2c1O` the same measures were 10.1 µM and 20.3 µM.
With `CCOC(=O)/C=C(/C(=O)OCC)n1cc(Cl)c(=O)n(CC(=O)OCC)c1=O`, the TGI was 7.64 µM and 5.5 µM.
In the case of `CC1=C(C(=O)Nc2ccc3[nH]ncc3c2)C(c2ccc3ccccc3c2)CC(=O)N1` (centres undefined), the GI50 was > 16.9 µM and the TGI was > 25 µM.
Regarding `O=C1NNC=Nc2ccc(cc2)S(=O)(=O)c2ccc(cc2)N=CNNC1=O`, the TGI is > 100 µM.
Consider `CC1OC(O[C@H]2C[C@@H](O)[C@]3(CO)[C@H]4[C@H](O)C[C@]5(C)[C@@H](C6=CC(=O)OC6)CC[C@]5(O)[C@@H]4CC[C@]3(O)C2)C(O)C(O)C1O` (some centres undefined), for which the GI50 is 17.7 µM and the TGI came out at 33.9 µM.

Another assay deals with HCT-116 colon. As to the kind of experiment: NCI anticancer screen, dose series, 48 h.
As for `COC(=O)c1cc2c3ccccc3[nH]c2c2ncccc12`, the GI50 was 54.9 µM and the TGI was > 100 µM.
For `CNC(=O)OCc1c(COC(=O)NC)c(-c2ccc(Cl)c(Cl)c2)n2c1SCC2`, the TGI was found to be 26 µM.
As for `COc1cc(OC)cc(-c2ccc(-c3ccc(C(=N)N)o3)o2)c1`, the GI50 is 2.51 µM and the TGI worked out at 6.11 µM.
For `C[C@]12CC[C@H](O)CC1=CC[C@@H]1[C@@H]2CC[C@]2(C)C(c3cccnc3)=CC[C@@H]12` the same measures were 19.2 µM and > 100 µM.
On the same counts, the results for `Cc1ccc2c(c1)C(=O)/C(=C/c1ncc([N+](=O)[O-])n1C)O2` are 0.282 µM and 0.886 µM.
On the same counts, the results for `O=C(NCCOCCOCCNc1cccc2c1C(=O)N(C1CCCNC1=O)C2=O)c1cc2c(o1)C(=O)c1ccccc1C2=O` (centres undefined) are 2.06 µM and 5.54 µM.
`O=C(CN1CCOCC1)Nc1ccc(Cn2nnc3c2C(=O)c2nnn(Cc4ccc(NC(=O)CN5CCOCC5)cc4)c2C3=O)cc1`: the GI50 was 0.316 µM and the TGI was 1.16 µM.
On the same counts, the results for `O=C(c1ccco1)c1nc2ccc(C(F)(F)F)cc2[n+]([O-])c1C(F)(F)F` are > 100 µM and > 100 µM.
On the same counts, the results for `C=C(CN1CCc2ccccc2C1)c1ccc(C(=O)Nc2cnccn2)cc1` are 16.6 µM and 68 µM.
In the case of `CCCCC/C(C=C(C#N)C#N)=C/c1ccccc1`, the GI50 was 1.95 µM and the TGI amounted to 4.46 µM.
Consider `CC1CCC2(C(=O)O)CCC3(C)C(=CCC4C5(C)CC(O)C(O)C(C)(CO)C5C(O)CC43C)C2C1C` (centres undefined), for which the TGI was > 24.3 µM.
Take `Cc1ccc(S(=O)(=O)N(CCOc2ccc(/C(N)=N/Cl)cc2)CCOc2ccc(/C(N)=N\Cl)cc2)cc1`: the GI50 is 12.7 µM and the TGI was > 100 µM.
On the same counts, the results for `COc1ccc(C2=NN(C(=O)c3cc(OC)c(OC)c(OC)c3)C(c3ccc(C#N)cc3)C2)cc1OC` (centres undefined) are 1.63 µM and > 44.2 µM.
On the same counts, the results for `CCOc1cccc(/C=N/NC(=O)c2ccccc2Nc2ccnc(C(F)(F)F)c2)c1O` are 0.336 µM and > 51.9 µM.
On the same counts, the results for `CSc1cc(N=Nc2nc3ccccc3s2)c2ccccc2c1O` are 7.3 µM and 29.3 µM.
Regarding `CCOC(=O)/C=C(/C(=O)OCC)n1cc(Cl)c(=O)n(CC(=O)OCC)c1=O`, the GI50 was 13.7 µM; the TGI was 9.67 µM and 28 µM.
Turning to `CC1=C(C(=O)Nc2ccc3[nH]ncc3c2)C(c2ccc3ccccc3c2)CC(=O)N1` (centres undefined), the GI50 is 14.1 µM and the TGI was > 25 µM.
In the case of `O=C1NNC=Nc2ccc(cc2)S(=O)(=O)c2ccc(cc2)N=CNNC1=O`, the TGI was > 100 µM.
On to `CC1OC(O[C@H]2C[C@@H](O)[C@]3(CO)[C@H]4[C@H](O)C[C@]5(C)[C@@H](C6=CC(=O)OC6)CC[C@]5(O)[C@@H]4CC[C@]3(O)C2)C(O)C(O)C1O` (some centres undefined), for which the GI50 was 19 µM and the TGI came to 33.7 µM.
